One series relates to c-MYC. Put plainly: FRET melting assay, c-MYC. The class given is binding. The following applies: 0.2 μM dual-labeled DNA and 0.2 μM TMPyP4.
In a further series the test system is c-MYC Pu27. Put plainly: PCR stop assay, Pu27 template. In kind it is biochemical. As to conditions: 10 μM compound. The procedure: (§1) PCR Stop Assay. This assay was performed by modifying a previously published protocol.
(§2) To the PCR reaction mixture (25 μL), 1×PCR buffer (New England Biolabs), 5 μM Pu27 and Pu27rev oligomers, various concentrations of ligands (DMZ, TMPyP4, DMZ1, DMZ9 and DMZ13) were added and incubated at 4° C. for 6 h. After that, 1 mM dNTPs, 5 units of Taq DNA polymerase (New England Biolabs) were added and PCR reactions were performed in a thermocycler, with the following conditions: 94° C. for 3 min, followed by 20 repeated cycles each having 94° C. for 30 s, 58° C. for 30 s, and 72° C. for 30 s. After PCR, amplified products were analyzed on 12% polyacrylamide gel with 1×TBE and SYBR Gold stained. This assay was also performed under the same conditions with Pu27-13,14 and Pu27rev.

The test system of a further series is NBM. Put plainly: WST-1 IC50 determination, normal bone marrow. The class given is cell-based, human. Here is the method: (§3) Cell lines and culturing. The following human cell lines were purchased from ATCC (ATCC, Manassas, Va.): prostate cancer cells (PC-3), triple negative breast cancer cells (MDA-MB-231), ovarian cancer cells (OVCAR-3), normal bone marrow (NBM) and normal fibroblast cells (MCR5A). MDA-MB-231 cells were grown at 37° C. with 5% CO2 atmosphere with DMEM (Life technologies, Carlsbad, Calif.) supplemented with heat-inactivated 10% (V/V) fetal bovine serum. OVCAR-3 and PC-3 cells were grown at 37° C. with 5% CO2 atmosphere with RPMI (Life technologies, Carlsbad, Calif.) supplemented with heat-inactivated 10% (V/V) fetal bovine serum. Cell lines were grown and maintained according to ATCC recommendations.
(§4) IC50 determination. Cell lines were seeded into 96-well plates the afternoon prior to treatment. Cell seeding number was determined by growing cells in log phase growth during drug treatment. Approximately 18 hours later, compounds were semi-serially diluted in dimethyl sulfoxide (DMSO) and then growth medium, and added to cells. Plates were incubated for 72 hours prior to addition of WST-1 (Promega, Madison Wis.). Plates were read after 4 additional hours of incubation at 37° C. using a Bio-Tek Synergy HT plate reader (Bio-Tek, Winooski, Vt.). Data was analyzed, graphed and IC50s generated using GraphPad Prism Software (Graphpad, La Jolla, Calif.).
(§5) IC50 determination: For the determination of IC50 for the azolamide class, the same protocol as described previously was followed.
(In general: Tetrazolium assays rely on reduction of a dye to a coloured formazan, in cell work by metabolically active cells.)

In another series the test system is OVCAR-3. The experiment in a line: WST-1 IC50 determination, OVCAR-3. In kind it is cell-based, human. The procedure:
as §3, §4, §5

The subject of a further series is F21T. Put plainly: FRET melting assay, F21T. The class given is binding. As to conditions: 0.2 μM dual-labeled DNA and 0.2 μM TMPyP4.
A further series deals with Pu27-13,14. Put plainly: PCR stop assay, mutated control template. The class given is biochemical. As to conditions: 10 μM compound. Here is the method:
as §1, §2

The next series has as its system k-RAS21R. The experiment in a line: FRET melting assay, k-RAS21R. As to conditions: 0.2 μM dual-labeled DNA and 0.2 μM TMPyP4. In kind it is binding.
A further series deals with c-kit2. The experiment in a line: FRET melting assay, c-kit2. In kind it is binding. As to conditions: 0.2 μM dual-labeled DNA and 0.2 μM TMPyP4.
Another series has as its system MCR5A. The experiment in a line: WST-1 IC50 determination, normal fibroblast. In kind it is cell-based, human. As to conditions: normal fibroblast cell, 72 hours, read-out: IC50 ± SD, MCR5A. The procedure:
as §3, §4

For another series, the system named is duplex. Put plainly: FRET melting assay, duplex DNA. The class given is binding. The following applies: 0.2 μM dual-labeled DNA and 0.2 μM TMPyP4.
Another series deals with PC-3. The experiment in a line: WST-1 IC50 determination, PC-3. In kind it is cell-based, human. The procedure: as §3, §4, §5
The subject of the next series is G-quadruplexes. The following applies: binding of classic G-tetrad-motif ligand to G-quadruplexes; cited from earlier work.
For the next series, the system named is MDA-MB-231. The experiment in a line: WST-1 IC50 determination, MDA-MB-231. In kind it is cell-based, human. Here is the method:
as §3, §4, §5

A further series deals with MOLM14. The experiment in a line: WST-1 IC50 determination, MOLM14. The class given is cell-based. The following applies: Homo sapiens, MOLM-14. Here is the method: as §4, §5
Another series relates to MV4-11. The experiment in a line: IC50 determination, MV4-11. The following applies: Homo sapiens, Acute monocyctic leukemia, read-out: Anticancer activities, MV4-11. The class given is cell-based. Here is the method: as §4, §5
The test system of a further series is U87. Put plainly: IC50 determination, U87. The class given is cell-based. The following applies: Homo sapiens, U-87 MG; Glioblastoma; read-out: Anticancer activities, U87. Here is the method:
as §4, §5

The nature of the next series: Tolerability studies. The class given is in vivo. As to conditions: mice, 10 mg/Kg.
Series [1] is described as follows: Human liver microsome stability. The class given is in vitro ADME. The following applies: human, liver microsomes. The text has this:
An established method to determine the pharmacokinetic clearance of a compound in humans is to measure the degradation of the compound in the presence of human liver microsomes. The following is the half-lives of the four compounds in human liver microsomes: […]
In general terms: Microsomes from liver hold many membrane-bound enzymes, among them those of drug oxidation.

For a further series, the system named is THP1. Put plainly: WST-1 IC50 determination, THP1. The class given is cell-based. As to conditions: Homo sapiens, THP-1; THP1, 72 h; read-out: IC50 for killing Leukemia cell line. The procedure: as §4, §5

Read-outs that look alike come from different tables or passages of the source. Some results are limits rather than exact numbers.

For `C[n+]1ccc(-c2c3nc(c(-c4cc[n+](C)cc4)c4ccc([nH]4)c(-c4cc[n+](C)cc4)c4ccc([nH]4)c(-c4cc[n+](C)cc4)c4nc2C=C4)C=C3)cc1` [TMPyP4, reference compound], the “ΔTm c-MYC” value in the series with c-MYC turned out to be 23.75 ± 0.52 °C. The “polymerization/extension of oligomers Pu27 and Pu27rev” value with c-MYC Pu27 is “showed inhibition”. The IC50 in the series on NBM (normal bone marrow, 72 hours, WST-1, read-out: IC50 ± SD, NBM) came to 16800 nM; with OVCAR-3 (72 hours, WST-1, read-out: Anticancer activity IC50 ± SD, OVCAR-3), 14600 ± 5700 nM; in the series with MCR5A, 15200 ± 6600 nM; with PC-3 (72 hours, WST-1, read-out: Anticancer activity IC50 ± SD, PC-3), 14000 ± 5400 nM; with MDA-MB-231 (72 hours, WST-1, read-out: Anticancer activity IC50 ± SD, MDA-MB-231) it was 14300 ± 4000 nM. The “ΔTm F21T” value in the series with F21T turned out to be 4.01 ± 0.26 °C. In the series with Pu27-13,14, the “PCR product with non-G-quadruplex template” value is “no PCR product was observed”. Also, in the series on k-RAS21R, the “ΔTm k-RAS21R” value worked out at 34.71 ± 0.93 °C. Moreover, the “ΔTm c-kit2” value in the series with c-kit2 was 3.46 ± 1.03 °C. Besides, in the series on duplex, the ΔTm duplex amounted to 1.14 ± 0.52 °C. In the series with G-quadruplexes, the Ka entry is on record as “≈ 5×10^6 M^−1”.
For the compound `N=C(N)c1ccc(/N=N/c2c(N)ncc3ccccc23)cc1` [HSW308-4], the IC50 worked out at 980 nM with MOLM14 (MOLM14, 72 h, read-out: IC50 for killing Leukemia cell line); 980 nM with MOLM14 (leukemia, read-out: Anticancer activities, Molm14); 8700 nM in the series on NBM (Homo sapiens, Bone marrow cell, Normal bone marrow cells, read-out: Anticancer activities, NBM); 4200 nM with OVCAR-3 (Homo sapiens, OVCAR-3, read-out: IC50 for killing ovarian cancer cell line (OVCAR-3)); 920 nM in the series on MV4-11; 1320 nM in the series on U87. The IC50 turned out to be 1300 nM with PC-3 (Homo sapiens, PC-3, prostate cancer, read-out: Anticancer activities, PC3); 1000 nM in the series with PC-3 (Homo sapiens, PC-3, read-out: IC50 for killing prostate cancer cell line (PC-3)); 1900 nM in the series on MDA-MB-231 (Homo sapiens, MDA-MB-231, read-out: IC50 for killing triple negative breast cancer cell line (231)); 1850 nM with MDA-MB-231 (Homo sapiens, MDA-MB-231, triple negative breast cancer, read-out: Anticancer activities, TNBC 231); 2600 nM in the series with THP1. For the same compound, the tolerability result in “Tolerability studies” is listed as “can be tolerated”. The figures for the half-life in series [1] (read-out: NADPH-dependent T½) and in series [1] (read-out: NADPH-independent T½) were 3.27 h and more than 4 h, respectively.

Values taken from US20190209548A1, “LINKED DIARYL COMPOUNDS WITH ANTICANCER PROPERTIES AND METHODS OF USING THE SAME” (University of Maryland, College Park, priority 2014, published 2019).
